In brackets after ≈: the same amount, converted by molar mass. Entries after “also recorded” stand apart in the source; their conditions may differ.
Key:
[1] = system: Mycosphaerella fijiensis 10CR-25; assay: Antimicrobial effect in PDA agar medium (6-well plate); format: cell-based
Procedure: The antimicrobial effect of RejuAgro A on Mycosphaerella fijiensis was examined by adding final concentrations of 60 and 600 μg/mL of HPLC purified RejuAgro A respectively into the PDA agar medium. A 480 μL of 0.5 mg/mL or 5 mg/mL RejuAgro A was added into 3.52 mL of PDA in a well of a 6-well plate to make the final concentration of RejuAgro A at 60 (FIG. 12, middle well (panel A)) and 600 μg/mL (FIG. 12, left well (panel B)) respectively. The plate was gently shaken to let the compound dissolved.

[2] = system: Xanthomonas oryzae pv. oryzicola (Xon507); assay: microbe, parasite or virus in culture; format: cell-based; conditions: 44 h, read-out: Inhibition zone
[3] = system: Erwinia amylovora CA11 (streptomycin-resistant); assay: microbe, parasite or virus in culture; format: cell-based
Solubility in solvents = format: physicochemical; conditions: methanol, chloroform
Procedure: Preparative HPLC (Prep-HPLC) purification of the fraction 3840 and 5054 lead to the discovery of 15 mg yellow colored compound RejuAgro A (Rt17.5) and 103.3 mg dark-green colored compound RejuAgro B, respectively. […] The structures of the two compounds have been investigated by High resolution mass spectrometry (HR-MS), infrared (IR), Ultraviolet (UV), 1D and 2D Nuclear magnetic resonance (NMR) as well as X-ray crystal structure analysis.

Ea = assay: Bioactive fractions tested against Ea; format: cell-based, Erwinia amylovora; conditions: crude extracts 100 μg/mL; flash-RejuAgro A 20 μg/mL; HPLC-RejuAgro A 10 μg/mL
Procedure: (§1) Two assays were used for the antimicrobial test of 0617-T307 cell broth and metabolites. One is plate diffusion assay and the other one is microplate assay. LB plate was used for the plate diffusion assay of the antimicrobial activity of RejuAgro A containing fractions and cell broths against E. amylovora (Table 3).
(§2) The bioactive fractions (crude extracts, 100 μg/mL; flash-RejuAgro A, 20 μg/mL; HPLC-RejuAgro A, 10 μg/mL) were tested against strains 0617-T307, Ea and Xac.

[4] = system: Phytophthora infestans Pi 1306; assay: microbe, parasite or virus in culture; format: cell-based
[5] = Stability of RejuAgro A in the culture (LCMS); format: physicochemical; conditions: room temperature; 40-h culture of 0617-T307 in YME; tested by LCMS
Procedure: RejuAgro A can be present and stable in the culture at room temperature for at least 4 weeks, as tested by LCMS for 40-h culture obtained by growing 0617-T307 in YME media on a shaker at 16° C. and 220 rpm.

[6] = system: Xanthomonas citri pv. citri citrange (XW19); assay: Paper disc inhibition zone on PSG agar plates; conditions: 44 h, read-out: Inhibition zone
Colletotrichum dematium = assay: microbe, parasite or virus in culture; format: cell-based; conditions: 144 h
Magnaporthe oryzae = assay: microbe, parasite or virus in culture; format: cell-based; conditions: Pyricularia oryzae, 144 h
[7] = system: Flavobacterium columnare #2; assay: MIC antimicrobial assay (CLSI, 96 well plates); format: cell-based; conditions: Flavobacterium columnare #2 (Fish columnaris disease), TYES
[8] = system: the other soft pathogenetic bacteria (Pectobacterium, Dickeya dadantii); assay: MIC antimicrobial assay; format: cell-based
Septoria tritici = assay: microbe, parasite or virus in culture; format: cell-based; conditions: Zymoseptoria tritici, 144 h
[9] = system: Fusarium oxysporum f. sp. Melonsis; assay: microbe, parasite or virus in culture; format: cell-based; conditions: 144 h
Xac = assay: Bioactive fractions tested against Xac; format: cell-based, Xanthomonas axonopodis pv. citri; conditions: crude extracts 100 μg/mL; flash-RejuAgro A 20 μg/mL; HPLC-RejuAgro A 10 μg/mL
Venturia inaequalis = assay: Antifungal assay on amended PDA plates; format: cell-based
Procedure: The fungus Venturia inaqualis that causes apple scab was maintained on PDA agar in the dark at room temperature (˜24° C.). A mixture of conidia and mycelia suspension (in 0.01 M PBS) was harvested from PDA (Potato dextrose agar). Ten μL the conidia and mycelia suspension were dropped onto biocontrol bacteria, RejuAgro A, or RejuAgro A amended plates. The control was PDA plates without the addition of the biocontrol bacteria or RejuAgro A or B. […]

strain 0617-T307 = assay: Bioactive fractions tested against the producer strain; format: cell-based, Pseudomonas soli; conditions: crude extracts 100 μg/mL; flash-RejuAgro A 20 μg/mL; HPLC-RejuAgro A 10 μg/mL
Procedure: as §1, §2

[10] = system: Liberibacter crescens BT-1; assay: microbe, parasite or virus in culture; format: cell-based
P. infestans = assay: microbe, parasite or virus in culture; format: cell-based; conditions: Phytophthora infestans
[11] = system: Ralstonia solanacearum K60; assay: microbe, parasite or virus in culture; format: cell-based; conditions: K60, Ralstonia solanacearum K60 (bacterial wilt)
[12] = system: Ralstonia solanacearum Pss4; assay: microbe, parasite or virus in culture; format: cell-based; conditions: PSS4, Ralstonia solanacearum Pss4 (bacterial wilt)
E. amylovora Ea110 = assay: Field assay on apple trees in the orchard; format: in vivo, Erwinia amylovora; conditions: apple orchard 2019; bacteria at 5×10^8 CFU/mL; Ea110 5×10^6 CFU/mL; water control 32.9%
Excerpt: For the field assay, biological control bacteria (0617-T307, 0118-T319, 0318-T327, 0418-T328; see Table 2) that produce RejuAgro A were applied on the flowers of the apple trees in the orchard on May 5th and May 6th of 2019 (40% and 70% bloom of apple flowers) at the concentration of 5×10^8 CFU/mL. The bacterial pathogen E. amylovora Ea110 was inoculated on May 7th (90% bloom), at the concentration of 5×10^6 CFU/mL. […] Compared with streptomycin, the biocontrol bacteria that produce RejuAgro A have similar or better efficacy on controlling fire blight in the apple orchards.

SMILES: CSC1=C(C)C(=O)C(=O)NC1=O [RejuAgro A]
- growth of M. fijiensis on PDA agar ([1]; 60 μg/mL): growth
- growth of M. fijiensis on PDA agar ([1]; 600 μg/mL, two weeks post-inoculation): complete inhibition; also recorded: inhibitory growth
- MIC ([1]; Pseudocercospora fijiensis, 10CR25, Mycosphaerella fijiensis 10CR-25 (black sigatoka of Banana)): 600 µg/mL (≈ 3240 µM)
- zone of inhibition at 5.5 µg/mL [2]: 2.7 ± 0.6 mm
- zone of inhibition at 11.1 µg/mL [2]: 5 ± 1 mm
- zone of inhibition at 22.1 µg/mL [2]: 7.3 ± 1.5 mm
- zone of inhibition at 33.2 µg/mL [2]: 8.3 ± 1.5 mm
- zone of inhibition at 55.4 µg/mL [2]: 9.3 ± 0.6 mm
- zone of inhibition at 110.7 µg/mL [2]: 13.3 ± 1.2 mm
- MIC ([3]; Erwinia amylovora): 10 µg/mL (≈ 54 µM)
- solubility in methanol and chloroform (Solubility in solvents): can be dissolved
- inhibition of growth of Ea (Ea): almost abolish the growth
- MIC [4]: 40 µg/mL (≈ 216 µM)
- present and stable in the culture [5]: at least 4 weeks
- zone of inhibition at 5.5 µg/mL [6]: 0 mm
- zone of inhibition at 11.1 µg/mL [6]: 0 mm
- zone of inhibition at 22.1 µg/mL [6]: 0 mm
- zone of inhibition at 33.2 µg/mL [6]: 0 mm
- zone of inhibition at 55.4 µg/mL [6]: 2.3 ± 0.6 mm
- zone of inhibition at 110.7 µg/mL [6]: 2.7 ± 1.2 mm
- MIC (Colletotrichum dematium): 50 µg/mL (≈ 270 µM)
- MIC (Magnaporthe oryzae): 75 µg/mL (≈ 405 µM)
- MIC [7]: 5 µg/mL (≈ 27 µM)
- MIC [8]: 20 to 40 µg/mL (≈ 108 to 216 µM)
- MIC (Septoria tritici): 100 µg/mL (≈ 540 µM)
- MIC [9]: 100 µg/mL (≈ 540 µM)
- inhibition of growth of Xac (Xac): almost abolish the growth
- growth of V. inaequalis on PDA plates (Venturia inaequalis; 40-80 μg/mL in PDA plate, day 14 (figure)): can inhibit the growth; also recorded: cannot grow
- inhibition at 80 µg/mL (Venturia inaequalis; Venturia inaequalis): 100%
- MIC (Venturia inaequalis; Venturia inaequalis (Apple scab)): 80 µg/mL (≈ 432 µM)
- inhibition of growth of strain 0617-T307 (strain 0617-T307): not able to inhibit the growth
- growth of L. crescens ([10]; 1 mg/L): partial inhibition of growth
- growth of L. crescens ([10]; 2.5 mg/L, for 16 days): inhibition of growth
- growth of L. crescens BT1 ([10]; BM7 medium at 28° C., 10 mg/L, 20 mg/L, and 40 mg/L): inhibition of growth
- MIC ([10]; Liberibacter crescens, BT1, read-out: minimal inhibitory concentration (MIC)): 2.5 µg/mL (≈ 13.5 µM)
- inhibition at 40 µg/mL (P. infestans): 100%

SMILES: [H]/N=C(/N)N[C@H]1[C@H](O)[C@@H](O)[C@H](O[C@@H]2O[C@@H](C)[C@](O)(C=O)[C@H]2O[C@@H]2O[C@@H](CO)[C@H](O)[C@@H](O)[C@@H]2NC)[C@@H](N/C(N)=N\[H])[C@@H]1O [Streptomycin, reference compound]
- MIC [11]: 12.5 µg/mL (≈ 21.5 µM)
- MIC ([3]; Erwinia amylovora): > 40 µg/mL
- MIC ([3]; Erwinia amylovora CA11, streptomycin-resistant): >40 µg/mL
- MIC [12]: 12.5 µg/mL (≈ 21.5 µM)
- MIC [7]: 0.31 µg/mL (≈ 0.533 µM)
- percentage of diseased flower clusters (E. amylovora Ea110): 13.3%

From patent publication US12089595B2, “Pseudomonas strains and their metabolites to control plant diseases” (T3 Bioscience, Inc., priority 2020, dated 2024)
